Experimental data from the supplement of paper PMC10307832.

Assays:
Experiment in all cases: relative viability (nuclei count vs DMSO), 5 days (fraction); higher = more cells survive
[1] = compound: CNC(=O)c1cc(Oc2ccc(NC(=O)Nc3ccc(Cl)c(C(F)(F)F)c3)cc2)ccn1 [Sorafenib] + COc1cc2c(Oc3ccc(NC(=O)C4(C(=O)Nc5ccc(F)cc5)CC4)cc3F)ccnc2cc1OCCCN1CCOCC1 [Foretinib] (partner 0.25 µM)
Summary of the method: (§1)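 Lung cancer cell lines in 1536-well plates got either a single drug or a fixed anchor-drug dose together with five library-drug doses (not always all listed) in √10 steps, by pin tool, on the day after seeding. Nuclei were counted after 5 days, and relative viability is the treated-to-vehicle ratio of nuclei counts. Values are medians of duplicate plates.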

[2] = compound: CNC(=O)c1cc(Oc2ccc(NC(=O)Nc3ccc(Cl)c(C(F)(F)F)c3)cc2)ccn1 [Sorafenib] + Cc1cc(Nc2cc(N3CCN(C)CC3)nc(Sc3ccc(NC(=O)C4CC4)cc3)n2)n[nH]1 [Tozasertib] (partner 0.1 µM)
Summary of the method: as §1

[3] = compound: CNC(=O)c1cc(Oc2ccc(NC(=O)Nc3ccc(Cl)c(C(F)(F)F)c3)cc2)ccn1 [Sorafenib] + CC(=O)Nc1cccc(-n2c(=O)n(C3CC3)c(=O)c3c(Nc4ccc(I)cc4F)n(C)c(=O)c(C)c32)c1 [Trametinib] (partner 0.02 µM)
Summary of the method: as §1

[4] = compound: CNC(=O)c1cc(Oc2ccc(NC(=O)Nc3ccc(Cl)c(C(F)(F)F)c3)cc2)ccn1 [Sorafenib] + CC(C)C[C@H](NC(=O)[C@H](Cc1ccccc1)NC(=O)c1cnccn1)B(O)O [Bortezomib] (partner 0.002 µM)
Summary of the method: as §1

[5] = compound: CNC(=O)c1cc(Oc2ccc(NC(=O)Nc3ccc(Cl)c(C(F)(F)F)c3)cc2)ccn1 [Sorafenib] + Nc1nc2[nH]cc(CCc3ccc(C(=O)N[C@@H](CCC(=O)O)C(=O)O)cc3)c2c(=O)[nH]1 [Pemetrexed] (partner 0.2 µM)
Summary of the method: as §1

Row | Cell Line | relative viability ([1]; first compound 0.08 µM) | relative viability ([1]; first compound 2.53 µM) | relative viability ([1]; first compound 8 µM) | relative viability ([2]; first compound 0.08 µM) | relative viability ([2]; first compound 2.53 µM) | relative viability ([2]; first compound 8 µM) | relative viability ([3]; first compound 0.08 µM) | relative viability ([3]; first compound 0.253 µM) | relative viability ([3]; first compound 2.53 µM) | relative viability ([3]; first compound 8 µM) | relative viability ([4]; first compound 0.08 µM) | relative viability ([4]; first compound 0.253 µM) | relative viability ([4]; first compound 2.53 µM) | relative viability ([4]; first compound 8 µM) | relative viability ([5]; first compound 0.08 µM) | relative viability ([5]; first compound 0.253 µM) | relative viability ([5]; first compound 2.53 µM) | relative viability ([5]; first compound 8 µM) | relative viability ([1]; first compound 0.253 µM) | relative viability ([2]; first compound 0.253 µM)
1 | NCI-H441 | 1.11 | 0.957 | 0.782 | 0.644 | 0.542 | 0.386 | 0.564 | 0.408 | 0.457 | 0.27 | 0.489 | 0.433 | 0.277 | 0.219 | 0.283 | 0.234 | 0.257 | 0.227 | – | –
2 | NCI-H520 | 0.71 | 0.736 | 0.406 | 0.517 | 0.432 | 0.331 | 0.934 | 0.403 | 0.518 | 0.217 | 0.828 | 0.665 | 0.599 | 0.232 | 0.731 | 0.781 | 0.58 | 0.199 | 0.71 | 0.436
3 | COR-L 105 | 1.32 | 1.18 | 1.03 | 0.405 | 0.322 | 0.411 | 0.51 | 0.472 | 0.432 | 0.378 | – | 0.806 | 0.994 | 0.478 | 1.26 | 1.31 | 1.32 | 0.852 | 0.982 | 0.435
4 | SW 1573 | 1.09 | 0.995 | 0.777 | 0.194 | 0.174 | 0.119 | 0.549 | 0.608 | 0.337 | 0.131 | 1.22 | 1.05 | 0.989 | 0.286 | 0.911 | – | 0.719 | 0.374 | 0.791 | 0.205
5 | PC-3 [JPC-3] | 1.07 | 0.985 | 0.882 | 0.879 | 0.881 | 0.823 | – | 0.712 | 0.773 | 0.718 | 0.875 | 0.726 | 0.818 | 0.928 | 1.11 | 0.856 | 1.34 | 1.2 | 1.05 | 0.846
6 | HCC-15 | 0.999 | 1 | 0.869 | 0.443 | 0.372 | 0.179 | 0.411 | 0.354 | 0.396 | 0.3 | 0.996 | 0.83 | 0.912 | 0.807 | 0.253 | 0.211 | 0.22 | 0.145 | 0.933 | 0.438
7 | UMC-11 | 0.968 | 0.941 | 0.58 | 0.209 | 0.202 | 0.184 | 0.854 | 0.743 | 0.639 | 0.612 | 0.609 | 0.627 | 0.702 | 0.231 | 0.869 | 0.788 | 0.772 | 0.474 | 1.02 | 0.195
8 | NCI-H1734 | 1.05 | 0.682 | 0.41 | 0.266 | 0.249 | 0.212 | 0.71 | 0.646 | 0.577 | 0.324 | 1.01 | 1.14 | 0.885 | 0.346 | 0.431 | 0.415 | – | 0.374 | 0.769 | 0.224
9 | SK-MES-1 | 1.07 | 0.903 | 0.818 | 0.823 | 0.714 | 0.439 | 0.627 | 0.614 | 0.315 | 0.231 | – | – | – | – | 0.999 | 0.84 | 0.881 | – | 0.896 | 0.833
10 | NCI-H1792 | – | – | – | – | – | – | 0.527 | 0.461 | 0.421 | 0.177 | 1.02 | 0.957 | 0.958 | 0.92 | 0.97 | 0.527 | 0.578 | 0.567 | – | –
11 | NCI-H522 | – | – | – | 0.626 | 0.588 | 0.523 | 0.789 | 0.664 | 0.748 | 0.58 | – | – | – | – | 1.02 | 0.782 | 0.863 | 0.883 | – | 0.596
12 | NCI-H358 | 0.786 | – | 0.489 | 0.112 | 0.0966 | 0.073 | 0.14 | 0.143 | 0.116 | 0.107 | – | – | – | – | 0.168 | 0.146 | 0.145 | 0.144 | 0.723 | 0.0906
13 | NCI-H1395 | 1.08 | 1.04 | 0.854 | 0.748 | 0.8 | 0.634 | 1.25 | – | 1.04 | 0.846 | – | – | – | – | 1 | – | 0.917 | – | 0.931 | 0.729
14 | LK-2 | 1.06 | 0.976 | 0.747 | 0.17 | 0.17 | 0.153 | 0.78 | 0.764 | 0.512 | 0.239 | – | – | – | – | 0.331 | 0.254 | 0.303 | 0.194 | 1 | 0.226
15 | NCI-H1703 | 0.384 | 0.298 | 0.278 | – | – | – | – | – | – | – | 0.193 | 0.207 | 0.183 | 0.151 | – | – | – | – | 0.283 | –
16 | NCI-H727 | 0.936 | 0.909 | 0.739 | 0.643 | 0.555 | 0.487 | 0.416 | 0.351 | 0.391 | 0.367 | 0.775 | 0.618 | 0.699 | 0.516 | – | – | – | – | 1.11 | 0.638
17 | NCI-H2170 | 1.02 | 0.986 | 0.967 | 0.767 | 0.726 | 0.694 | 0.896 | 0.805 | 0.99 | 0.804 | – | – | – | – | 0.258 | 0.278 | 0.27 | 0.208 | 0.994 | 0.714
18 | IA-LM | – | 0.61 | 0.757 | – | – | – | – | – | – | – | 0.704 | 0.363 | 0.458 | 0.408 | – | – | – | – | 0.624 | –
19 | NCI-H1944 | 0.92 | 0.946 | 0.747 | 0.281 | 0.266 | 0.206 | 0.384 | 0.436 | 0.367 | 0.253 | – | – | – | – | 0.697 | 0.557 | 0.735 | 0.438 | 0.97 | 0.292
20 | ABC-1 | 1.06 | 1.38 | 0.392 | 0.227 | 0.214 | 0.185 | – | – | – | – | 0.36 | 0.253 | 0.321 | 0.336 | – | – | – | – | 1.11 | 0.219
